Results published in US20220152228A1, “COMPOSITIONS AND METHODS FOR RADIOTHERAPY USING CHELATED RADIOTHERAPEUTIC AGENTS AND NON-TARGET TISSUE BLOCKADE” (Washington University, priority 2019, published 2022).
Where two headings read alike, the source gives them in different places.

Experiments:
[1] = Method: The animals were maintained for 20 days with food and water and submitted to blood chemistry analysis (Abaxis Vscan 2) at day 1; 7 and 19 d post-treatment. Weight was monitored for each cohort over 20 days. At the end of the study (day 20 post-treatment), animals were sacrificed and whole limbs and kidneys were harvested for gamma counting and histopathological assessments, respectively.
Kidneys were collected 20 days post-treatment and the tissues were fixed in formalin for 72 h then transferred to saline. Tissues were processed by dehydration, paraffin embedding, and sectioning at 4 μm. Adjacent sections were stained with H&E, PAS and Masson's trichrome.

[2] = 223Ra organ distribution in mice pre-treated with ion-channel modulator; assay type: in vivo, C57/Bl6 mice
Method: Healthy male C57/Bl6 mice were randomized received a combination treatment with intraperitoneal injection of Amiloride (inhibitor, red) or NS-1619 (activator, green) or saline (control, grey) followed by a clinical dose of ^223RaCl2 1 h post-drug administration. Radioactive organ distribution was then measured at 15 min, 1 h and 4 h post ^223Ra treatment. […] Comparing bone uptake, as early as 15 min, osseous absorption is was half for the NS-1619-treated group as compared to the amiloride or the control group.
Male C57Bl/6 aged 10 weeks (n=6 per treated group) were administered intraperitoneally Amiloride (12.5 mg/kg-150 uL 2% v/v DMSO) or NS-1619 (1 mg/kg-150 uL 2% v/v DMSO) or saline 1 h prior ^223RaCl2 i.v. administration (3.7 KBq/100 uL buffer). Animals were kept awake between each injection. 15 min; 1 h and 4 h post ^223Ra administration: blood; spleen; kidney; stomach; duodenum; jejunum; ileum; cecum; colon; muscle; fat and bone tibia were harvested, weighed and gamma counted. Gamma counting was conducting utilizing a Perkin Elmer Wizard2 counter with readings of energies set 150-350 KeV, with 10 min reading for each sample. Standard corresponding to 10% of injected activity were measured as well; allowing for the calculation of % Injected activity (% IA) normalized to tissue weight (% IA/g).

[3] = system: ^223Ra transport through caco-2 monolayers; assay: Ion-channel ligand library screen for 223Ra flux through caco-2 monolayers; assay type: cell-based; conditions: 20 μM, BL to AP, normalized to treatment-free flux
Method: Caco-2BBe1 (brush border expressing clone of parent Caco-2 line) monolayers, modelling colon tissue, were used. Caco-2 monolayers were utilized for ion-channel ligand library screening (52 compounds) testing epithelial ion-transport activation or blocking of radioactive transfer (see e.g., FIG. 15A). Caco-2 cells were seeded 15 K cells/well in 96 trans-well filter plate and assayed 10 days post-seeding. […] The screening material was sampled at 20 μM per BL well (n=3/molecules).
The monolayers integrity was monitored using a lucifer yellow permeability assay. The fluorescent tracer was loaded in the AP compartment, and fluorescence permeability was read in the BL vial. % Lucifer Yellow Passage (LYp %) was calculated as the percentile ratio of relative Fluorescence Units-535 nm (FU) of the assayed BL over FU of complete transfer in BL well.
Radioactive reading was accomplished sampling AP compartments on Luma plates and reading the dried luminescence using Topcount scintillation counter. […] Averaged drug-assayed measurements (n=3) were normalized to treatment-free flux.

[4] = aqueous solution, physiological pH, Ba2+ complex; cited from earlier work
Remark: listed apart in the source
human serum proteins = conditions: for activity in early protein fractions (5-15 mL), affinity with proteins: 2 h of incubation in serum proteins
Method: Next, the stability of the complex to serum proteins was determined in vitro, simulating the complex biological environment encountered in vivo.
Alternatively, size exclusion chromatography (SEC) was utilized to identify each species in solution. […] Chelated activity % was measured integrating gamma counts of macropa peak (20 mL) over the sum counts of all collected fractions (0-47 mL) (see e.g., FIG. 3E).

[5] = system: human duodenal enteroid monolayers
Method: An in vitro patient-derived organoid model of functional gut epithelium was developed by plating human duodenal enteroid monolayers on a permeable trans-well scaffold.
Intestinal cellular models—human duodenal enteroids and caco-2 monolayers—were grown on a trans-well polymeric filter plate divided in a lower and an upper incubation compartments modeling basolateral and apical side of the epithelium, respectively.
Human duodenal enteroids (see e.g., FIG. 13A) were reconstituted and grown from healthy patient-derived cellular crypts tissue samples. Both differentiated (DF) and undifferentiated (UDF) conditions were tested. DF monolayers were induced by removal of Wnt3A and R-spondin factors from the incubation media, as described previously.
DF or UDF duodenal enteroids were set and grown on 24-transwell plates for 2 weeks until cell confluency was reached, leading to closed monolayer membranes. […] Temperature-dependent transport 37° C. versus 4° C. was tested on UDF enteroids (see e.g., FIG. 13B). DF versus UDF enteroids phenotypes transfer were compared, selecting monolayers with similar range of TEER (1200<TEER<1800 D/m) (see e.g., FIG. 13C).

[6] = after administration to mice
Method: The whole gastrointestinal tracts from stomach to rectum were rapidly harvested and placed directly on plastic wraps set over autoradiographic phosphor screens for 90 min exposure in the dark. The autoradiographic prints were read on Cyclone Phosphor Imager (Packard), 300 DPI confocal laser stimulation; 16-bit ADC; utilizing FIJI processing with median filter. For FIJI readings of the autoradiographic files, data were converted to 32-bit format utilizing “square and scale n16” plug in. Radioactive signal intensity was translated into dynamic light units (see e.g., FIG. 12A). Signal intensity was plotted over the GI tract length from the stomach (start=0) to the cecum (˜200 mm) comparing various time points (see e.g., FIG. 12B). Results were comprised as well into profiles curves per organ region of interests including: stomach, cecum or the whole intestinal tract (see e.g., FIG. 12C).

[7] = system: metastatic castration-resistant prostate cancer; conditions: mCRPC patients, vs. 11.9 months in control patients; cited from earlier work
colon and duodenum = conditions: mice, uptake in the intestine
Method: Animals were fasted and supplemented with Golytely (24 g/350 mL) 2 h prior injections and sacrificed 24 h post administration. Sections (1 cm) of each gastrointestinal region from the duodenum, jejunum, ileum to the colon were rapidly harvested. GI specimen were set onto previously partially solidified OCT gel block, then fully coated with OCT and flash frozen. Gastrointestinal transversal sectioning was conducted utilizing Leica microtome, 10 μm sections. Fresh frozen sections were collected on tape and stored at −20° C.
Gastrointestinal tissue sections were fixed immerging tapes in 10% paraformaldehyde (PFA) for 15 min followed by a washing with PBS 1×. Following fixation, tissues were mounted directly with DAPI and/or TRITC-Phalloidin mounting media under cover slip ready for imaging.
A second fixations was proceeded using 10% PFA and washed with deionized water. Tissues were then reacted using buffer reaction mixtures from Click-iT Plus TUNEL assay. Positive control were conducted, treated similarly with an additional DNAase treatment. Final counterstaining was conducted using Hoechst33342 (1:5000) before mounting taped tissue specimen under cover slip with 30% aqueous glycerol.
For γH2AX staining, tissues were fixed and submitted to blocking serum reagent, 1 h at room temperature. […]

[8] = human serum proteins, 37° C., 12 days

N=C(N)NC(=O)c1nc(Cl)c(N)nc1N [Amiloride]
increase in 223Ra bone-homing (whole legs gamma-counted) versus Radium-223 alone ([1]; combination treatment, 20 days following treatment, P=0.0283): 15% | blood chemistry profile, Radium versus Radium/Amiloride cohorts ([1]; day 1 to day 19 post-treatment): no profile difference | upper GI radioactive uptake (combined % IA of stomach, duodenum, jejunum) ([2]; 15 min p.i.): lower radioactive content | upper GI radioactive uptake (combined % IA of stomach, duodenum, jejunum) ([2]; 4 h p.i.): No difference | 223Ra sequestration in bone, times higher versus control or NS-1619 ([2]; 4 h p.i., modulator i.p. 1 h before 223RaCl2): over 1.5 times | area under the curve of bone uptake versus 223RaCl2 alone ([2]; combination with 223RaCl2, FIG. 17): significantly larger | effect on 223Ra transport through monolayers [3]: inhibitor

O=c1[nH]c2cc(C(F)(F)F)ccc2n1-c1cc(C(F)(F)F)ccc1O [NS-1619]
upper GI radioactive uptake (combined % IA of stomach, duodenum, jejunum) ([2]; 1 h p.i.): significantly higher | upper GI radioactive uptake (combined % IA of stomach, duodenum, jejunum) ([2]; 4 h p.i.): No difference | effect on 223Ra transport through monolayers [3]: activator

O=C([O-])c1cccc(CN2CCOCCOCCN(Cc3cccc(C(=O)[O-])n3)CCOCCOCC2)n1.[Ba+2] [[(Ba)macropa]]
stability constant (log K′ML,pH7.4) [4]: 10.74

O=C([O-])c1cccc(CN2CCOCCOCCN(Cc3cccc(C(=O)[O-])n3)CCOCCOCC2)n1.[223Ra+2] [[(^223Ra)macropa]]
fold lower bone uptake than free 223Ra (15 min and 24 h p.i., FIG. 4C legend): 10-25 fold | fold lower bone uptake compared to 223RaCl2 in citrate (15 min p.i.): 10 fold | fold lower bone uptake compared to 223RaCl2 in citrate (24 h p.i.): 20 fold | bone uptake (24 h p.i., macropa study): 1.6±0.2 % IA/g | excretion route (animal models, compared to bare ion (Xofigo)): quantitatively excreted via renal filtration | accumulation in the spleen and the gut (compared with 223RaCl2): prevented accumulation | fold higher signal in equal volume of urine (bladder) than 223RaCl2 group (early time point (15 min)): 300 fold | complex status in urine after excretion (SEC) (urine samples of chelator-administered group): intact | activity in early protein fractions (5-15 mL), affinity with proteins (human serum proteins): no registered activity in the early fractions | 223Ra retained (chelated activity) after serum protein challenge (human serum proteins; [8]): > 90% | decomplexation after serum protein challenge (human serum proteins; [8]): 10%

[Cl][223Ra][Cl] [^223RaCl2, Radium-223 Dichloride]
223Ra transport, differentiated versus undifferentiated enteroids ([5]; basolateral to lumen compartment, P<0.05): superior capacity to transport | transport of radioactivity, 37° C. versus 4° C. ([5]; undifferentiated enteroids, basolateral to apical): temperature-dependent active transport | small bowel and stomach accumulation [6]: observed within minutes | median survival [7]: 14.9 months | bone uptake (24 h p.i., macropa study): 22±1 % IA/g | splenic uptake (24 h p.i., macropa-β-alanine study): 5.52+/−2.3 % IA/g | bone uptake (24 h p.i., macropa-β-alanine study, naive skeletally mature mice): 9.7±1.66 % IA/g | activity in early protein fractions (5-15 mL), affinity with proteins (human serum proteins): no registered activity in the early fractions | apoptosis and DNA damage in cells of the colon and duodenum (colon and duodenum): increased cell apoptosis and DNA damage

C/C=C(/C)C(=O)O[C@H]1C(C)=C2[C@H]([C@@H]1OC(=O)CCCCCCC)[C@@](C)(OC(C)=O)C[C@H](OC(=O)CCC)[C@@]1(O)[C@H]2OC(=O)[C@@]1(C)O [thapsigargin]
effect on 223Ra transport through monolayers [3]: does not increase transport
